Drawing on ChEMBL document CHEMBL1154261, “Halogenated fatty acid amides and cyclic depsipeptides from an eastern Caribbean collection of the cyanobacterium Lyngbya majuscula” (J Nat Prod, 2009), this text covers IC50 and Activity for six compounds.

pIC50: −log10 of the molar value. Starred links: 1 amine or outer side, 2 acyl side, 3 side chain; linkers in the order of their positions; H or OH if unused. Non-standard residues stand in square brackets, D forms with d. Residues, ends and D or L forms follow the SMILES beside them. X1 = CCC[C@@H](N[*:1])[C@H](C)C(=O)[*:2]; Met(O2) = CS(=O)(=O)CC[C@H](N)C(=O)O; dNMeF = CN[C@H](Cc1ccccc1)C(=O)O; NMeL = CN[C@@H](CC(C)C)C(=O)O; dHiv = CC(C)[C@@H](O)C(=O)O

For data set [1], the system named is HEK293. The experiment in a line: Cytotoxicity against HEK293 cells after 48 hrs by resazurin conversion-based fluorometric assay. The data set is classed as cell-based. Particulars: Homo sapiens, HEK293, 48 h.
The subject of another data set is Spodoptera exigua. The experiment in a line: Antilepidopteran activity against beet armyworm neonates assessed as mortality rate at 1.0 mg/ml after 5 days. The data set is classed as functional.
Data set [2] concerns HEK293. The data set is described as follows: Cytotoxicity against HEK293 cells at 400 nM after 48 hrs by resazurin conversion-based fluorometric assay. Particulars: human, hek293, 48 h, 0.4 µM. The class given is cell-based.

Regarding `CCC/C(=C\Cl)CCCC(=O)NC(C)CC(C)C(=O)C(C)CC/C=C/Cl` (stereo not drawn) [GRENADAMIDE], the pIC50 in the data set with HEK293 [1] was no more than 4.00. In the data set with Spodoptera exigua, the Activity was 50%.

For the compound `C=CCCC(C)C(=O)C(C)CC(C)NC(=O)CCC/C(=C/Cl)CCC` (stereo not drawn) [GRENADAMIDE B], in the data set on HEK293 [1], the pIC50 is no more than 4.00. Further, in the data set with Spodoptera exigua, the Activity is 38%.

With `CCC[C@H]1NC(=O)[C@H](C)NC(=O)[C@H](CC(C)C)N(C)C(=O)[C@H](Cc2ccccc2)NC(=O)[C@H](CCS(C)(=O)=O)NC(=O)[C@@H](Cc2ccccc2)N(C)C(=O)[C@@H](C(C)C)OC(=O)[C@H]1C` [CARRIEBOWMIDE SULFONE] (cyclo(A[X1][dHiv][dNMeF][Met(O2)]F[NMeL])), the pIC50 with HEK293 [1] was less than 4.30.

Take `COc1cccc2c1C(=O)c1c(O)c3c(c(O)c1C2=O)C[C@@](O)(C(C)=O)C[C@@H]3O[C@H]1C[C@H](N)[C@H](O)[C@H](C)O1` [DAUNORUBICIN]: the Activity in the data set on HEK293 [2] is recorded as 82%.

Compound `C[C@@H]1C(=O)O[C@@H](C(C)(C)O)c2nc(cs2)C(=O)OC(C)(C)[C@H](O)c2nc(cs2)C(=O)O[C@H]1CCCC(C)(Cl)Cl` [DEACETYLHECTOCHLORIN] gave a pIC50 with HEK293 [1] of 5.22.

With `CC(CC(=O)N(C)[C@@H]1C(=O)N(C)[C@@H](C(C)C)C(=O)N[C@H](C)C(=O)N(C)[C@@H](C)C(=O)N(C)[C@H](Cc2ccccc2)C(=O)N[C@@H](C)C(=O)O[C@@H]1C)C(Cl)Cl` (stereo partly drawn) [ITRALAMIDE A], the pIC50 with HEK293 [1] was 4.27.
